Results reported in patent US20220111013A1, “COMPOUND DECREASING THE CONCENTRATION OF 2-HYDROXY-GLUTARATE” (Universität Heidelberg, priority 2019, published 2022).
Entries after “also recorded” stand apart in the source; their conditions may differ. Positions of bridges follow the written chain, without caps; N, C: chain ends. No end group written: not given here.

How the values were obtained:
L2HGDH = assay: Gene expression analysis of L2HGDH in Ang-II infusion mice model; format: in vivo; conditions: Ang-II infusion mice vs controls
Method: (§1) RNA was extracted and purified from frozen mouse heart using Trizol reagent (QIAzol lysis reagent, Qiagen) following manufacturer's instructions, followed by DnaseI digestion. Nucleic acid yields were analyzed photometrically (NanoDrop ND-1000, Spectrophotometer). 1.5 μg RNA was reverse transcribed into cDNA using Superscript III Kit (Invitrogen) and oligo(dT) Primers. cDNA synthesis was followed by RNA digestion using RNase H. qRT-PCR was executed using iTaq Universal SYBR Green Supermix (Thermo Fisher Scientific) and CFX96 Touch Real-Time PCR detection system (Bio Rad) as previously described (Doehner 2014). The following primers used for cDNA relative quantification are listed below.

[1] = system: primary neonatal rat ventricular cardiomyocytes (NRVCMs); assay: Measurement of mitochondrial ROS production with MitoSOX in NRVCM; format: cell-based; conditions: ET-1 stimulation 200 μmol/l for 24 hours, compared to control
Method: NRVCMs were isolated and prepared as published previously (Rangrez et al. 2013). Briefly, left ventricles from 1-2 days old Wistar rats (Charles River) were harvested and cut in pH 7.4 buffer containing 120 mmol/liter NaCl, 20 mmol/liter Hepes, 8 mmol/liter NaH2PO4, 6 mmol/liter glucose, 5 mmol/liter KCl, and 0.8 mmol/liter MgSO4. The separation of single cardiomyocyte from cut tissue mass, was achieved by enzymatic digestion with 0.6 mg/ml pancreatin (Sigma) at 37° C. and 0.5 mg/ml collagenase type 11 (Worthington). Cell suspension was filtered by a cell strainer. Newborn calf serum was added to stop enzymatic digestion. In order to separate cardiomyocytes from fibroblasts, a Percoll gradient (GE Healthcare) centrifugation step was performed. Afterwards, cardiomyocytes were cultured in DMEM medium containing 10% fetal calf serum (FCS), 2 mM penicillin/streptomycin, and L-glutamine (PAA Laboratories). […]
MitoSOX was applied to culture medium to a final concentration of 0.5 μM and cells were incubated for 15 minutes at 37° C. […] The fluorescence (red) was detected (Ex: 400 nm, Em at 590 nm) using confocal microscopy (Zeiss LSM 800). Mean fluorescence intensity (MFI) was calculated from the total fluorescence intensity detected from viable cells and divided by the number of cells using the software generated by Image J software (NIH, Bethesda, Md., USA).

NRVCMs [2] = assay: Mitochondrial membrane potential (TMRE) in NRVCMs; format: cell-based, rat; conditions: L-2HG treatment, live cell monitoring
Method: In additional experiments, […] were transduced with AAV6 vectors, either overexpressing L2HGDH or luciferase (Luc) as control at the M01=10^5 vp/cell. Three days after transduction L-2HG (Sigma-Aldrich) was applied to cell culture medium to a final concentration of 2 mM. Cells were harvested 2 days after treatment. […] were maintained in μ-Slide 8-wells, (Ibidi), suitable for live cell imaging. Cells were incubated with tetramethylrhodamine (TMRE) at 37° C. to a concentration of 50 nmol/L for 30 min. Afterwards, cells were washed with warm PBS and media was replaced with FluoroBrite DMEM (Thermo Fischer Scientific). Cells were imaged within 30 min (Ex: 549; Em: 574 nm).

[3] = system: primary rat neonatal fibroblasts; assay: L-2HG on fibroblast proliferation and collagen synthesis; format: cell-based; conditions: disodium salt; for collagen3a1 expression: Western blot, non-treated fibroblasts as control; for fibroblast proliferation, Ki67-positive nuclei: immunocytochemistry
NRVCMs [4] = assay: Pro-hypertrophic effects of 2-HG on NRVCMs (cell size, ANP and BNP mRNA); format: cell-based, rat; conditions: 2 days
Method: as §1
NRVCMs were isolated and prepared as published previously (Rangrez et al. 2013). […]
Cardiomyocytes were fixed with 4% PFA and blocked in 2.5% BSA in PBS including 0.1% Triton. […] Florescence graphs were collected with Keyence fluorescence microscope BZ-9000 at ×10 magnification (objective: CFI Plan Apochromat λ×10; Nikon) and BZ-II viewer software (Keyence, version 2.1). […] HybridCellCount module and fluorescence intensity singe-extraction mode were applied for cell size measurement.

NRVCMs [5] = assay: 2HG induced cardiomyocyte hypertrophy in NRVCMs with AAV6 transduction; format: cell-based, rat; conditions: L-2HG 2 mM, 2 days
Method: as §1
In additional experiments, NRVCMs were transduced with AAV6 vectors, either overexpressing L2HGDH or luciferase (Luc) as control at the M01=10^5 vp/cell. Three days after transduction L-2HG (Sigma-Aldrich) was applied to cell culture medium to a final concentration of 2 mM. Cells were harvested 2 days after treatment.
Cardiomyocytes were fixed with 4% PFA and blocked in 2.5% BSA in PBS including 0.1% Triton. Next NRVCMs were incubated with monoclonal mouse anti-α-actinin (1:200 in 2.5% BSA in PBS; Sigma) antibody for 1 hour at room temperature. After washing with PBS, secondary antibody conjugated to Alexa Fluor-546 (Thermo Fisher Scientific) together with nuclear stain DAPI (Sigma-Aldrich) at a dilution of 1:200 or 1:1000 respectively in 2.5% BSA in PBS were applied and incubated for 1 h. Afterwards, coverslips were mounted using FluorPreserve reagent (Merck Millipore). Florescence graphs were collected with Keyence fluorescence microscope BZ-9000 at ×10 magnification (objective: CFI Plan Apochromat λ×10; Nikon) and BZ-II viewer software (Keyence, version 2.1). 10 pictures were taken from each coverslip. BZ-II Analyzer (version 2.1) were used to process and analyze the graphs. HybridCellCount module and fluorescence intensity singe-extraction mode were applied for cell size measurement.

NRVCMs [6] = assay: Mitochondrial membrane potential (JC-1) in NRVCMs; format: cell-based, rat; conditions: 2HG treatment
Method: In additional experiments, […] were transduced with AAV6 vectors, either overexpressing L2HGDH or luciferase (Luc) as control at the M01=10^5 vp/cell. Three days after transduction L-2HG (Sigma-Aldrich) was applied to cell culture medium to a final concentration of 2 mM. Cells were harvested 2 days after treatment. Similarly, JC-1 was applied to cell culture medium to a concentration of 1 μmol/L and cells were incubated at 37° C. for 30 min. After washing with warm PBS, cells were imaged in FluoroBrite DMEM (J-monomers Ex:485; Em:535/J-aggregates Ex: 530; Em:590) using a confocal microscope (LSM800, Zeiss). Mean fluorescence intensity was analysed using ImageJ.

Tet2 = target: T1, Tet2 (Rattus norvegicus, UniProt A0ABK0LWH5); assay: Assessment of hydroxymethylation status of cytosine (5mC-Hydroxylase TET activity kit) after 2-HG treatment; format: cell-based; conditions: nuclear extracts of NRVCMs after 2-HG treatment
T1 construct: nuclear extracts isolated from NRVCMs; endogenous in cells; host or cells: primary neonatal rat ventricular cardiomyocytes (NRVCMs), nuclear extract
Method: Epigenase 5mC-Hydroxylase TET Activity/Inhibition Assay Kit was employed to analyse Tet2 activity in nuclear extracts isolated from NRVCMs after 2-HG treatment. Cell fractionation was performed according to standard REAP protocol (Suzuki et al. 2010). The measurement of hydroxymethylcytosine (hmC) amount was performed according to manufacturer's instructions. 50 μg of nuclear protein was used per sample.

T1 sequence (A0ABK0LWH5 1-1959): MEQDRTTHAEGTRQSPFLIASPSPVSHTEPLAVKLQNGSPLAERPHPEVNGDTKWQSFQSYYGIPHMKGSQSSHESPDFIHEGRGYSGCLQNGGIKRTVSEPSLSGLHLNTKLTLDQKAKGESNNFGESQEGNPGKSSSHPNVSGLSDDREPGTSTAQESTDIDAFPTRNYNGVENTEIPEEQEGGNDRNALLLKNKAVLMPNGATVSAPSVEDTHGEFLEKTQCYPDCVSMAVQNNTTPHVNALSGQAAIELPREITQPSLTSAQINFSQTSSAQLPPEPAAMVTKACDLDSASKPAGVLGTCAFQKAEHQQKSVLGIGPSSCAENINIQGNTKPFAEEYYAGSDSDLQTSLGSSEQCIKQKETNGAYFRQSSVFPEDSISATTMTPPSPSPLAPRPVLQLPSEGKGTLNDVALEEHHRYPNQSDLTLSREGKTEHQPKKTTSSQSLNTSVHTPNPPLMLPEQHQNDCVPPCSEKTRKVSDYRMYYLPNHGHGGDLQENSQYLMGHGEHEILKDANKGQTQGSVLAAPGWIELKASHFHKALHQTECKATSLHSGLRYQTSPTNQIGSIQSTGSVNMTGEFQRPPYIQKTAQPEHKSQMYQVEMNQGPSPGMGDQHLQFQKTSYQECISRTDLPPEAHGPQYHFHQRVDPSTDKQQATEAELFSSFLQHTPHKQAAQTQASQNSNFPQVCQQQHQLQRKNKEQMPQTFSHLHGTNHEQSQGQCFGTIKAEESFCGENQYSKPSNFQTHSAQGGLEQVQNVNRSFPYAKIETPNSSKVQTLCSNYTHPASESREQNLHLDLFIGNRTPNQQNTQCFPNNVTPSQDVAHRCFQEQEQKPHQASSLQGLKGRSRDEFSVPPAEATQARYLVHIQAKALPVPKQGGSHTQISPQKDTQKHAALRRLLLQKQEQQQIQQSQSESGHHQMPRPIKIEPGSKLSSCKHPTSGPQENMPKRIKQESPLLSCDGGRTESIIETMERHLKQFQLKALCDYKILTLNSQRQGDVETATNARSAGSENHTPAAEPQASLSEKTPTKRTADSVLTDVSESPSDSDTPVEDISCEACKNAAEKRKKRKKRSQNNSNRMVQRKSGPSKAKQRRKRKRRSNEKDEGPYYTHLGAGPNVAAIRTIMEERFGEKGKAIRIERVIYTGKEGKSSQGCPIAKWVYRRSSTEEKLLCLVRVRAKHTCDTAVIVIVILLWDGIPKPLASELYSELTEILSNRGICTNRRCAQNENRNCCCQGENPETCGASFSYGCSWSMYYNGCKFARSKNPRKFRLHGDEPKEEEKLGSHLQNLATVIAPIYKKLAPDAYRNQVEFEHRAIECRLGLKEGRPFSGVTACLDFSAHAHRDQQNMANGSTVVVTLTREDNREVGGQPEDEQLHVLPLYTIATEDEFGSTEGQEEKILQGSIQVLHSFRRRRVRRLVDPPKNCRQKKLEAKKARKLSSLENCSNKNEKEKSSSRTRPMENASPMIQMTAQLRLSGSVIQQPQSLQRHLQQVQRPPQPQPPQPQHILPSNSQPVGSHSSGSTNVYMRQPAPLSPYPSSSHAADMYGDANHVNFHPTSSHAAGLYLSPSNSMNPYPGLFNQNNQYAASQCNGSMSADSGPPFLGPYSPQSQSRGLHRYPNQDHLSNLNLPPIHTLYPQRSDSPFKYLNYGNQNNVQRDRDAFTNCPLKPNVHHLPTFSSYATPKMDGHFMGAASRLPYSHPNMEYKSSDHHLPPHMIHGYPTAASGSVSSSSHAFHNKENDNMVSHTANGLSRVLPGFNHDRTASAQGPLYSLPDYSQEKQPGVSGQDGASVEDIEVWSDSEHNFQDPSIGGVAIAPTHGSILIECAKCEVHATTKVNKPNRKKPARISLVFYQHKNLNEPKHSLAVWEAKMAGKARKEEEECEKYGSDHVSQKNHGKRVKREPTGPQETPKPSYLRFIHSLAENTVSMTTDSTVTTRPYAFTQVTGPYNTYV

Ang-II: infused to give the Ang-II infusion mice model of cardiac hypertrophy (DRVYIHPF; Angiotensin-2; UniProt P01019 25-32, looked up)
down-regulation in L2HGDH mRNA level (L2HGDH): 35%

ET-1: hypertrophic stimulation applied to NRVCMs in serum-free medium (CSCSSLMDKECVYFCHLDIIW; disulfide 1-15, 3-11; ends not checked; UniProt P05305 53-73, looked up)
MitoSOX fluorescence level (ROS production) [1]: significant increase

O=C([O-])CC[C@H](O)C(=O)[O-].[Na+].[Na+] [2-HG, L-α-Hydroxyglutaric acid disodium salt]
TMRE fluorescence (mitochondrial membrane potential) (NRVCMs [2]): time-dependent decrease
collagen3a1 expression [3]: induces
collagen3a1 expression ([3]; listed as L-2HG): significant increased
fibroblast proliferation, Ki67-positive nuclei [3]: induces
fibroblast proliferation, Ki67-positive nuclei ([3]; listed as L-2HG): dramatic increased
cell size (NRVCMs [4]; 2-HG 2 mM in serum-free medium, vs non-treated cells): dramatic increase
fetal gene program, ANP and BNP mRNA (NRVCMs [4]; 2-HG 2 mM): marked increase
cell size (NRVCMs [5]): increased
mRNA levels of pro-hypertrophic markers (NRVCMs [5]): increased
induction of hypertrophy in NRVCMs (NRVCMs [5]; disodium salt): marked induction; also recorded: pro-hypertrophic
JC-1 green/red mean fluorescence intensity (mitochondrial polarization) (NRVCMs [6]): mitochondrial depolarization
epigenetic 5-hmC deposition (Tet2): increased
